For one compound, IC50 results are on record in publication PMC2655231 (Cancer research, 2009).

Assay in all cases: in vitro radiometric kinase assay
Format in all cases: biochemical

For experiment [1], the target named is Cdk5/p25 (Homo sapiens, UniProt Q00535).
In experiment [2] the target is T1, Aurora A kinase (Homo sapiens, UniProt O14965).
T1 sequence (O14965 122-403): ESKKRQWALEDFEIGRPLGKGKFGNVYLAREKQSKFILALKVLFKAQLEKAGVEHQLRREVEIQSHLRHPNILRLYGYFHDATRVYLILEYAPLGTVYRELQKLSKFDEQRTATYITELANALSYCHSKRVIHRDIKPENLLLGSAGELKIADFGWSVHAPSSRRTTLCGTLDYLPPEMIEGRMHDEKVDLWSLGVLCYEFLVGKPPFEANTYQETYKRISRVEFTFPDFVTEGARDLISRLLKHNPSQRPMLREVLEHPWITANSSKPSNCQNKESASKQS
T1 sequence (Q9ULW0 1-747 partner): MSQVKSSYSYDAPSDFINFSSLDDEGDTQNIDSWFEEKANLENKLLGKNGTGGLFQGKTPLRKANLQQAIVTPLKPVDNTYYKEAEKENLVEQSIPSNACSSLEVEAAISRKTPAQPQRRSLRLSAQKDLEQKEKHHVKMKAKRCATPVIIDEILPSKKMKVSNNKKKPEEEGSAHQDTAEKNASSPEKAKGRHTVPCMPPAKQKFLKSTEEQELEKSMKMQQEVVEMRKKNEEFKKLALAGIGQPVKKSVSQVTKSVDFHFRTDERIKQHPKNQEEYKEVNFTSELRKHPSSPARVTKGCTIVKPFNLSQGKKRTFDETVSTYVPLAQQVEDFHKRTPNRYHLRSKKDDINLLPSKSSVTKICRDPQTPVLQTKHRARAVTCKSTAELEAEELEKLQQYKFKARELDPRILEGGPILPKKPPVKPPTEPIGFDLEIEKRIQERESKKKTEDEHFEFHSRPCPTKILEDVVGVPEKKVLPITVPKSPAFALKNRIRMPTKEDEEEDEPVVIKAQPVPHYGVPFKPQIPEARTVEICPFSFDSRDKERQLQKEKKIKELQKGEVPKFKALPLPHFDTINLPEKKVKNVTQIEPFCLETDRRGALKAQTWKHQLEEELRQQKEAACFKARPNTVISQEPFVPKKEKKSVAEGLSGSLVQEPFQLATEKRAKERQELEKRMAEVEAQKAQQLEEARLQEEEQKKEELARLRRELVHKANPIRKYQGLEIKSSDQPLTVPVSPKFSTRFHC

The target in experiment [3] is Aurora B kinase (Xenopus laevis, UniProt Q6DE08).
For experiment [4], the target named is Cdk1/cyclinB (Homo sapiens, UniProt P06493).
Sequence of Cdk1/cyclinB (P06493 whole entry): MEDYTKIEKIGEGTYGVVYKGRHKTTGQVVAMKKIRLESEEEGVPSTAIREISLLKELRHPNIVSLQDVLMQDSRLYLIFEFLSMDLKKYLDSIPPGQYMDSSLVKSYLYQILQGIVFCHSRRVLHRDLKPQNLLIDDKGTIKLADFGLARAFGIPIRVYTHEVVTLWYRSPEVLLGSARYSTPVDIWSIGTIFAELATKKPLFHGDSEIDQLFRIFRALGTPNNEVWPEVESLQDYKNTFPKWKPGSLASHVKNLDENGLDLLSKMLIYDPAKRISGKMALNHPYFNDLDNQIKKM
Sequence of Cdk1/cyclinB (P14635 whole entry partner): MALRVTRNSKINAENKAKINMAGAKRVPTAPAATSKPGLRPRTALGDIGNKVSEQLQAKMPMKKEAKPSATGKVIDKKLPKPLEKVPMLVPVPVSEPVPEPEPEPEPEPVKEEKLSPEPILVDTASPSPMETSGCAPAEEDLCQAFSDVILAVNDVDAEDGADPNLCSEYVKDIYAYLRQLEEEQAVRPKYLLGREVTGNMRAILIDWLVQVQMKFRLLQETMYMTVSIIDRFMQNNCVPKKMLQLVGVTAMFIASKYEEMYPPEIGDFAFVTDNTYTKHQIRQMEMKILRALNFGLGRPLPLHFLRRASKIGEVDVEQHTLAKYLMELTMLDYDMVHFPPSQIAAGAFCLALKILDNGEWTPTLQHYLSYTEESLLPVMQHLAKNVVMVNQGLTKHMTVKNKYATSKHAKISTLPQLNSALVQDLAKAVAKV

Sequence of Aurora B kinase (Q6DE08 60-361 limits assumed): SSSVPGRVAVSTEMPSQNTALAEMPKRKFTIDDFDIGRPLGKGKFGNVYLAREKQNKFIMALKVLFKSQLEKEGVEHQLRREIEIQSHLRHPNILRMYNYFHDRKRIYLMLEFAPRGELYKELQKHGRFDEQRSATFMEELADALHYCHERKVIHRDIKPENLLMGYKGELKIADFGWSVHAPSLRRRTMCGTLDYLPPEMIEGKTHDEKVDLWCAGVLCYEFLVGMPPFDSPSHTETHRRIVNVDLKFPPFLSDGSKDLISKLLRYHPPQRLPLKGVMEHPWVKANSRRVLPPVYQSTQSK
Sequence of Aurora B kinase (O13024 whole entry partner): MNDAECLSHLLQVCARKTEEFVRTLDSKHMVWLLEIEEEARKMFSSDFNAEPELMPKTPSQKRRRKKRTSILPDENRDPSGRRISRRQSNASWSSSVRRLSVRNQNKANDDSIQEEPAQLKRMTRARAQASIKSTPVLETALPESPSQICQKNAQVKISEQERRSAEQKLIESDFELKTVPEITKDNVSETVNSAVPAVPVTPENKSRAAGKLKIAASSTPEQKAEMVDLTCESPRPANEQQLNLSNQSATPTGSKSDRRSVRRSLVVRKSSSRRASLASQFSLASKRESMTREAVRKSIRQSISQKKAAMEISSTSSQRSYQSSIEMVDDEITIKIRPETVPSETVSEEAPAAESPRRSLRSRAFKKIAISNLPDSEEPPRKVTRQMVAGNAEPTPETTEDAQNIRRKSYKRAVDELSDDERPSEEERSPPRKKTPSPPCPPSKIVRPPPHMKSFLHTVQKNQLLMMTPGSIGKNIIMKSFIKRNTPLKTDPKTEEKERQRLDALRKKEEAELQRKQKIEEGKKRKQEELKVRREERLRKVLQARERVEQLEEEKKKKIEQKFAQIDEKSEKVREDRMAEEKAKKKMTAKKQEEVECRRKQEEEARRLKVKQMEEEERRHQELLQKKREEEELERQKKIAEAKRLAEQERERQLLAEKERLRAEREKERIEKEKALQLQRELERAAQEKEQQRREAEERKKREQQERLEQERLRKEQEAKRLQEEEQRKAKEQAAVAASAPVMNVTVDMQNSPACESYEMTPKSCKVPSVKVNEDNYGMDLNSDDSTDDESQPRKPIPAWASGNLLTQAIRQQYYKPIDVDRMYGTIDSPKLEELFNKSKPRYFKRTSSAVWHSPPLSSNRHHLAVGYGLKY
Sequence of Cdk5/p25 (Q00535 whole entry): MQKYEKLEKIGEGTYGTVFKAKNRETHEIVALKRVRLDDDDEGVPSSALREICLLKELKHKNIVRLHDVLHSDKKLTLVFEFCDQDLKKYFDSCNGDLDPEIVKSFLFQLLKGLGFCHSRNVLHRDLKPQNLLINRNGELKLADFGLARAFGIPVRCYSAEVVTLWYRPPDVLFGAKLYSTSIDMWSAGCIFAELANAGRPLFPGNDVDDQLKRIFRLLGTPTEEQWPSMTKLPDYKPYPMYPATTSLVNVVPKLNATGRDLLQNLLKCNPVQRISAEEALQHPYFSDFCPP
Sequence of Cdk5/p25 (Q15078 2-307 partner): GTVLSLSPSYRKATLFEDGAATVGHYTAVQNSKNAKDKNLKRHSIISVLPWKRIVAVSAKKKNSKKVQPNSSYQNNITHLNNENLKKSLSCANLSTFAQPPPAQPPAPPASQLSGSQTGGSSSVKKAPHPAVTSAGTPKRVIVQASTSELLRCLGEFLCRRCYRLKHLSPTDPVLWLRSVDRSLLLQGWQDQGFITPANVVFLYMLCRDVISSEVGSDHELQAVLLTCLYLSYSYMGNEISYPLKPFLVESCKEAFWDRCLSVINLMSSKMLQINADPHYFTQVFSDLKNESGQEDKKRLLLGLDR

With `COc1cc(/C=N/NC(=O)c2sc(N)nc2C)ccc1O` [OM137], the concentration for half-maximal inhibition (IC50) in experiment [1] is about 20 µM; in experiment [2], 21.7 µM; in experiment [3] it was 2.4 µM; in experiment [4], about 20 µM.
